According to ChEMBL document CHEMBL4507278 (2021):

What was measured:
[1] = test system: Tyrosine-protein kinase ABL1 (Homo sapiens), P00519 [H396P]; conditions: Compound concentration 1000.0 nM
[2] = test system: Tyrosine-protein kinase ABL1 (Homo sapiens), P00519 [Q252H]; conditions: Compound concentration 1000.0 nM
[3] = test system: Tyrosine-protein kinase ABL1 (Homo sapiens), P00519 [Q252H]; conditions: Compound concentration 1000.0 nM; remark: listed apart in the source
[4] = test system: Tyrosine-protein kinase ABL1 (Homo sapiens), P00519 [T315I]; conditions: Compound concentration 1000.0 nM
[5] = molecular target: Activin receptor type-2B (Homo sapiens) (UniProt Q13705); conditions: Compound concentration 1000.0 nM
[6] = test system: ALK tyrosine kinase receptor (Homo sapiens), Q9UM73 [C1156Y]; conditions: Compound concentration 1000.0 nM
[7] = molecular target: Protein-tyrosine kinase 6 (Homo sapiens) (UniProt Q13882); conditions: Compound concentration 1000.0 nM
Sequence of Protein-tyrosine kinase 6 (Homo sapiens) (Q13882 whole entry, looked up): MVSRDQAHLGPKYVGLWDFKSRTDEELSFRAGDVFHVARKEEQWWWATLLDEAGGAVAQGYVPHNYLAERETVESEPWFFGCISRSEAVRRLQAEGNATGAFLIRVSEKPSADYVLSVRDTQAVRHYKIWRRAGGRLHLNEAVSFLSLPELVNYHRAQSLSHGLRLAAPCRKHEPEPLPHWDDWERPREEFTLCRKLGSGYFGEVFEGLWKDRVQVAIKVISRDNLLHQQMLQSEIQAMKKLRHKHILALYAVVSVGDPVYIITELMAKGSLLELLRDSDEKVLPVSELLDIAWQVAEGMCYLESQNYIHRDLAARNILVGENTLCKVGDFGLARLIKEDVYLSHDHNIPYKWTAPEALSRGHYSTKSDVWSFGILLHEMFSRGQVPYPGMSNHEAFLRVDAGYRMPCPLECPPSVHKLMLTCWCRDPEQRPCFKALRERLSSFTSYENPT

[8] = molecular target: Tyrosine-protein kinase BTK (Homo sapiens) (UniProt Q06187); conditions: Compound concentration 1000.0 nM
[9] = molecular target: Cyclin-dependent kinase 11B (Homo sapiens) (UniProt P21127); conditions: Compound concentration 1000.0 nM
[10] = molecular target: Cyclin-dependent kinase 13 (Homo sapiens) (UniProt Q14004); conditions: Compound concentration 1000.0 nM
[11] = molecular target: Dual specificity protein kinase CLK1 (Homo sapiens) (UniProt P49759); conditions: Compound concentration 1000.0 nM
Sequence of Dual specificity protein kinase CLK1 (Homo sapiens) (P49759 whole entry, looked up, canonical isoform): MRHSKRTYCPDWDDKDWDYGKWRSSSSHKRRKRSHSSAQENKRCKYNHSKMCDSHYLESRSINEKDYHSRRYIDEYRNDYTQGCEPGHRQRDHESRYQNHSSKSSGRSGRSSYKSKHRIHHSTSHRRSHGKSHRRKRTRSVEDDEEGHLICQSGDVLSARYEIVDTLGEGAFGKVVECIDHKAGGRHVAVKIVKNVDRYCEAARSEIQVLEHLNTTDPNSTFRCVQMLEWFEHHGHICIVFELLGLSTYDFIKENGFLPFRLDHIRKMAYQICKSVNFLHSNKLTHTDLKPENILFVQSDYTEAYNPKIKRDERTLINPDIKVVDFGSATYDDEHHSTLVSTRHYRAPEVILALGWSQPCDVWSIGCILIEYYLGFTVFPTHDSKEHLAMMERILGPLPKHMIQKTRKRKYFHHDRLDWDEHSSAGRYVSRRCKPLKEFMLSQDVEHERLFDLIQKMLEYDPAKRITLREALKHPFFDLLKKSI

[12] = molecular target: Casein kinase I isoform alpha (Homo sapiens) (UniProt P48729); conditions: Compound concentration 1000.0 nM
[13] = molecular target: Casein kinase I isoform gamma-1 (Homo sapiens) (UniProt Q9HCP0); conditions: Compound concentration 1000.0 nM
[14] = molecular target: Casein kinase II subunit alpha' (Homo sapiens) (UniProt P19784); conditions: Compound concentration 1000.0 nM
[15] = molecular target: Epithelial discoidin domain-containing receptor 1 (Homo sapiens) (UniProt Q08345); conditions: Compound concentration 1000.0 nM
[16] = molecular target: Mitogen-activated protein kinase kinase kinase 12 (Homo sapiens) (UniProt Q12852); conditions: Compound concentration 1000.0 nM
[17] = molecular target: Serine/threonine-protein kinase MRCK gamma (Homo sapiens) (UniProt Q6DT37); conditions: Compound concentration 1000.0 nM
[18] = molecular target: Ephrin type-A receptor 2 (Homo sapiens) (UniProt P29317); conditions: Compound concentration 1000.0 nM
Sequence of Ephrin type-A receptor 2 (Homo sapiens) (P29317 whole entry): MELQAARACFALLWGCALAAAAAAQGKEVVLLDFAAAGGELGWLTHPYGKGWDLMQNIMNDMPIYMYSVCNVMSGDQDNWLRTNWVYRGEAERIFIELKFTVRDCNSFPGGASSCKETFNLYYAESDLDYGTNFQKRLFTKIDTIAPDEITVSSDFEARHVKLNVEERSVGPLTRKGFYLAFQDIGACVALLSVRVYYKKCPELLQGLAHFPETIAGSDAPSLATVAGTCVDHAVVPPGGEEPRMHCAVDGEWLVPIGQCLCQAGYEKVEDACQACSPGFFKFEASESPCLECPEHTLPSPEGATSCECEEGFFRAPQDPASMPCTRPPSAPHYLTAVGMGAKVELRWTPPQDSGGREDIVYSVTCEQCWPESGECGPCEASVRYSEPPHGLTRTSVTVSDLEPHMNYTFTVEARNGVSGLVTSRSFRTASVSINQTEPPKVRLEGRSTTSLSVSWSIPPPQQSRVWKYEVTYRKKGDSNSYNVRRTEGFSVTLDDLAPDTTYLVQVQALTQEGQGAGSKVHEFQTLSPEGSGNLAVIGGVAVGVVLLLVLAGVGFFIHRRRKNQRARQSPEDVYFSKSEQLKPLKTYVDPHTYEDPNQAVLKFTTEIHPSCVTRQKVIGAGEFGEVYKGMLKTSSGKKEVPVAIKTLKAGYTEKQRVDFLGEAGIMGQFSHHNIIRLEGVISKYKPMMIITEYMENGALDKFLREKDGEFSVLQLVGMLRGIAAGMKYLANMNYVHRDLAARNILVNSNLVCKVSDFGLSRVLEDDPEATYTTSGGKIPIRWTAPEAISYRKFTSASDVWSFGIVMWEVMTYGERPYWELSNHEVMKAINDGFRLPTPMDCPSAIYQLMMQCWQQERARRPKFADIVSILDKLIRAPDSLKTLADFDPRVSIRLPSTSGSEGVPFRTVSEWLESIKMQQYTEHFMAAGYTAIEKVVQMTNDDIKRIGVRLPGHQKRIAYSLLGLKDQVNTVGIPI

[19] = molecular target: Ephrin type-B receptor 6 (Homo sapiens) (UniProt O15197); conditions: Compound concentration 1000.0 nM
[20] = molecular target: Mitogen-activated protein kinase 7 (Homo sapiens) (UniProt Q13164); conditions: Compound concentration 1000.0 nM
[21] = molecular target: Tyrosine-protein kinase Fer (Homo sapiens) (UniProt P16591); conditions: Compound concentration 1000.0 nM
[22] = molecular target: Beta-adrenergic receptor kinase 1 (Homo sapiens) (UniProt P25098); conditions: Compound concentration 1000.0 nM
Sequence of Beta-adrenergic receptor kinase 1 (Homo sapiens) (P25098 whole entry): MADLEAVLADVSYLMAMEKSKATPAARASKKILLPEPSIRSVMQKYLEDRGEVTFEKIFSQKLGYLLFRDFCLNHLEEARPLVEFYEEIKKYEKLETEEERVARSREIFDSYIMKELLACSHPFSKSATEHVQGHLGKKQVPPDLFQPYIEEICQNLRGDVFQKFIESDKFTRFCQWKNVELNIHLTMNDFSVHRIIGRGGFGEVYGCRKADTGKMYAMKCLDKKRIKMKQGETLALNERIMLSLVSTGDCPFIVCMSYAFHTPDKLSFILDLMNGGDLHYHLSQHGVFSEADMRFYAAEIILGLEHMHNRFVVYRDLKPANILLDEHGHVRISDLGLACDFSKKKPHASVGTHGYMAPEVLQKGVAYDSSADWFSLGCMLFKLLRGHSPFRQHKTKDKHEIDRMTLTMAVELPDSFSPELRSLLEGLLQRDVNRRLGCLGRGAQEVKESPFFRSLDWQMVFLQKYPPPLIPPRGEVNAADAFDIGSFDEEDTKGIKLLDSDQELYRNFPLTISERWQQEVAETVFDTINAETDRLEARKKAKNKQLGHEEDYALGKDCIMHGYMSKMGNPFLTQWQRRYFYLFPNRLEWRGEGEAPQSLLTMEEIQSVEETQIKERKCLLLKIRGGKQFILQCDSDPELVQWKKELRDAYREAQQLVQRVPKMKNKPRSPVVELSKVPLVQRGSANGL

[23] = molecular target: Mitogen-activated protein kinase kinase kinase 15 (Homo sapiens) (UniProt Q6ZN16); conditions: Compound concentration 1000.0 nM
[24] = molecular target: Mitogen-activated protein kinase kinase kinase 2 (Homo sapiens) (UniProt Q9Y2U5); conditions: Compound concentration 1000.0 nM
[25] = molecular target: MAP kinase-activated protein kinase 5 (Homo sapiens) (UniProt Q8IW41); conditions: Compound concentration 1000.0 nM
[26] = molecular target: Dual specificity mitogen-activated protein kinase kinase 5 (Homo sapiens) (UniProt Q13163); conditions: Compound concentration 1000.0 nM
[27] = molecular target: Maternal embryonic leucine zipper kinase (Homo sapiens) (UniProt Q14680); conditions: Compound concentration 1000.0 nM
[28] = test system: Hepatocyte growth factor receptor (Homo sapiens), P08581 [Y1235D]; conditions: Compound concentration 1000.0 nM
[29] = molecular target: Macrophage-stimulating protein receptor (Homo sapiens) (UniProt Q04912); conditions: Compound concentration 1000.0 nM
[30] = molecular target: Membrane-associated tyrosine- and threonine-specific cdc2-inhibitory kinase (Homo sapiens) (UniProt Q99640); conditions: Compound concentration 1000.0 nM
[31] = molecular target: Serine/threonine-protein kinase N1 (Homo sapiens) (UniProt Q16512); conditions: Compound concentration 1000.0 nM
[32] = molecular target: Serine/threonine-protein kinase PknB (Mycobacterium tuberculosis) (UniProt P9WI81); conditions: Compound concentration 1000.0 nM
[33] = molecular target: Serine/threonine-protein kinase PLK4 (Homo sapiens) (UniProt O00444); conditions: Compound concentration 1000.0 nM
Sequence of Serine/threonine-protein kinase PLK4 (Homo sapiens) (O00444 whole entry): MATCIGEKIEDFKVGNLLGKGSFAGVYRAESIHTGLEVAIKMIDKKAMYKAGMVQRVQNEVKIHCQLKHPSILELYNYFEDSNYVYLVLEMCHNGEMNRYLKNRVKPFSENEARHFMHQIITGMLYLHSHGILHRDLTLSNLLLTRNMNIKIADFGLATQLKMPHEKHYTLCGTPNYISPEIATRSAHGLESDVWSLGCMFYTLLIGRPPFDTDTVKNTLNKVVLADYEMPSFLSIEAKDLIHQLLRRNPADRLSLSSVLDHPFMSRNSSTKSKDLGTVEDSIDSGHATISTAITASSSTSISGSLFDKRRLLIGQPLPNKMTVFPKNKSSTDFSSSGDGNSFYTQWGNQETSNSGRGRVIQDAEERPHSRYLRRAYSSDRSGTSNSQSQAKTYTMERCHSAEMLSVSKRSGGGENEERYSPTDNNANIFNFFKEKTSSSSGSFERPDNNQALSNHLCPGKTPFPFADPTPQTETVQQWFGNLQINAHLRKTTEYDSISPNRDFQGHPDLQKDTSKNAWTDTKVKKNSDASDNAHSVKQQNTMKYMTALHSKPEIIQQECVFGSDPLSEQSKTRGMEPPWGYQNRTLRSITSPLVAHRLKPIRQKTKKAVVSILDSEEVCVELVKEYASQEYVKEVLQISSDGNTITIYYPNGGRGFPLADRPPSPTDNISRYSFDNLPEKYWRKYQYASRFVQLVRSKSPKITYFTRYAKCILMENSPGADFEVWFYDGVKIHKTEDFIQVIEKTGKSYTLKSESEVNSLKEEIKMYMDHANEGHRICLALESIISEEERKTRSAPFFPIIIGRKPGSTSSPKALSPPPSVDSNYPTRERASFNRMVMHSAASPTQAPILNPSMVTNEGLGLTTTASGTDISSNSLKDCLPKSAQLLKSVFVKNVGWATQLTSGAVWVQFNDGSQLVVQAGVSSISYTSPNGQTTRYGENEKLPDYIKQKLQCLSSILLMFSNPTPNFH

[34] = molecular target: RAF proto-oncogene serine/threonine-protein kinase (Homo sapiens) (UniProt P04049); conditions: Compound concentration 1000.0 nM
[35] = molecular target: Ribosomal protein S6 kinase alpha-6 (Homo sapiens) (UniProt Q9UK32); conditions: Compound concentration 1000.0 nM
[36] = molecular target: STE20-like serine/threonine-protein kinase (Homo sapiens) (UniProt Q9H2G2); conditions: Compound concentration 1000.0 nM
[37] = molecular target: NUAK family SNF1-like kinase 2 (Homo sapiens) (UniProt Q9H093); conditions: Compound concentration 1000.0 nM
[38] = molecular target: Proto-oncogene tyrosine-protein kinase Src (Homo sapiens) (UniProt P12931); conditions: Compound concentration 1000.0 nM
Sequence of Proto-oncogene tyrosine-protein kinase Src (Homo sapiens) (P12931 2-536 limits assumed): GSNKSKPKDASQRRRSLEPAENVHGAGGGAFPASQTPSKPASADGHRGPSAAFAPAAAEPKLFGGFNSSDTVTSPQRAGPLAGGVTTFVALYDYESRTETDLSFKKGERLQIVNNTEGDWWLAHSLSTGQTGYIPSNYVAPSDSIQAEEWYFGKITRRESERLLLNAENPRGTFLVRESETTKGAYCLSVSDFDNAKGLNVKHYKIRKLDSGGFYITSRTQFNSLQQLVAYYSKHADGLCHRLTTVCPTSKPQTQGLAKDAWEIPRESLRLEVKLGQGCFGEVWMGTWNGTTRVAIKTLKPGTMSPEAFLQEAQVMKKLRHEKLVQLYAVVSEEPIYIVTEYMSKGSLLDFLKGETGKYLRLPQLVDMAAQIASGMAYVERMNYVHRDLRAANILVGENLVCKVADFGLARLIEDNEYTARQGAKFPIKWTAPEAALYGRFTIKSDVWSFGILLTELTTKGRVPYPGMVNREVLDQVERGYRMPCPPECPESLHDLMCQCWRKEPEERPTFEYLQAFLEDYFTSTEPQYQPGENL

[39] = molecular target: Serine/threonine-protein kinase 16 (Homo sapiens) (UniProt O75716); conditions: Compound concentration 1000.0 nM
[40] = molecular target: TRAF2 and NCK-interacting protein kinase (Homo sapiens) (UniProt Q9UKE5); conditions: Compound concentration 1000.0 nM
[41] = molecular target: Serine/threonine-protein kinase WNK3 (Homo sapiens) (UniProt Q9BYP7); conditions: Compound concentration 1000.0 nM
[42] = molecular target: Serine/threonine-protein kinase 32C (Homo sapiens) (UniProt Q86UX6); conditions: Compound concentration 1000.0 nM
[43] = molecular target: Mitogen-activated protein kinase kinase kinase 20 (Homo sapiens) (UniProt Q9NYL2); conditions: Compound concentration 1000.0 nM
Sequence of Mitogen-activated protein kinase kinase kinase 20 (Homo sapiens) (Q9NYL2 2-800 limits assumed): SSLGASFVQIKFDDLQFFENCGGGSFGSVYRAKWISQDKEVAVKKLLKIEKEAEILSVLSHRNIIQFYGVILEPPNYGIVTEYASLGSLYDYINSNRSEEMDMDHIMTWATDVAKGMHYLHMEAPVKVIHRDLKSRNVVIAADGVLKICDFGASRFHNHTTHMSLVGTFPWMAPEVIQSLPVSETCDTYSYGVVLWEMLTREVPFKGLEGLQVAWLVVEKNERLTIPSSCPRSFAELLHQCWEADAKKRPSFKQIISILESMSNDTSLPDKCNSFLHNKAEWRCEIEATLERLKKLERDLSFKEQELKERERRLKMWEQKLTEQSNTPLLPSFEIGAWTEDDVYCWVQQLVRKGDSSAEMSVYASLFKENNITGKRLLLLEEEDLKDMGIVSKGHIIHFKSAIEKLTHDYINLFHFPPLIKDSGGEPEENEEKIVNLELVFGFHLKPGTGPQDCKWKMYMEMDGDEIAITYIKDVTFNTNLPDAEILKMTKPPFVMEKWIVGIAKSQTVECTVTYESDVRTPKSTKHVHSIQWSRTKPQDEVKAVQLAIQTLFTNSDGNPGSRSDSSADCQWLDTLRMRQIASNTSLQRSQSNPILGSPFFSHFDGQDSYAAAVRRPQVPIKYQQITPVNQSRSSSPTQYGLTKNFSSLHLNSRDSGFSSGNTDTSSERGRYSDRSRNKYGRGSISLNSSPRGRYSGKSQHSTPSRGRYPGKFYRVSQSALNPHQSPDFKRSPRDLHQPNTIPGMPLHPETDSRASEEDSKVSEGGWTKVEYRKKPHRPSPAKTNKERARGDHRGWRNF

[44] = molecular target: Delta-type opioid receptor (Homo sapiens) (UniProt P41143); conditions: Compound concentration 10.0 uM
[45] = molecular target: Histamine H4 receptor (Homo sapiens) (UniProt Q9H3N8); conditions: Compound concentration 10.0 uM

CS(=O)(=O)NCC[C@H](NC(=O)c1cncc2c1cnn2-c1ccc(F)cc1)c1ccnc(S(C)(=O)=O)c1 [BI 9307]
residual activity [1]: 97% | residual activity [2]: 81% | residual activity [3]: 100% | residual activity [4]: 100% | residual activity [5]: 90% | residual activity [6]: 100% | residual activity [7]: 96% | residual activity [8]: 100% | residual activity [9]: 100% | residual activity [10]: 100% | residual activity [11]: 93% | residual activity [12]: 100% | residual activity [13]: 91% | residual activity [14]: 100% | residual activity [15]: 92% | residual activity [16]: 82% | residual activity [17]: 100% | residual activity [18]: 100% | residual activity [19]: 100% | residual activity [20]: 100% | residual activity [21]: 100% | residual activity [22]: 100% | residual activity [23]: 100% | residual activity [24]: 100% | residual activity [25]: 100% | residual activity [26]: 92% | residual activity [27]: 99% | residual activity [28]: 93% | residual activity [29]: 99% | residual activity [30]: 84% | residual activity [31]: 100% | residual activity [32]: 93% | residual activity [33]: 89% | residual activity [34]: 76% | residual activity [35]: 99% | residual activity [36]: 100% | residual activity [37]: 100% | residual activity [38]: 96% | residual activity [39]: 99% | residual activity [40]: 100% | residual activity [41]: 100% | residual activity [42]: 100% | residual activity [43]: 88% | inhibition [44]: -2.19% | inhibition [45]: -0.39%

CS(=O)(=O)c1cc(C2(NC(=O)c3cncc4c3cnn4-c3ccc(F)cc3)CC2)ccn1 [BI 639667]
residual activity [1]: 100% | residual activity [2]: 80% | residual activity [3]: 100% | residual activity [4]: 73% | residual activity [5]: 100% | residual activity [6]: 100% | residual activity [7]: 80% | residual activity [8]: 97% | residual activity [9]: 81% | residual activity [10]: 100% | residual activity [11]: 98% | residual activity [12]: 96% | residual activity [13]: 100% | residual activity [14]: 80% | residual activity [15]: 100% | residual activity [16]: 100% | residual activity [17]: 100% | residual activity [18]: 100% | residual activity [19]: 100% | residual activity [20]: 75% | residual activity [21]: 100% | residual activity [22]: 48% | residual activity [23]: 67% | residual activity [24]: 84% | residual activity [25]: 87% | residual activity [26]: 80% | residual activity [27]: 100% | residual activity [28]: 91% | residual activity [29]: 83% | residual activity [30]: 85% | residual activity [31]: 100% | residual activity [32]: 99% | residual activity [33]: 85% | residual activity [34]: 100% | residual activity [35]: 97% | residual activity [36]: 100% | residual activity [37]: 100% | residual activity [38]: 100% | residual activity [39]: 93% | residual activity [40]: 95% | residual activity [41]: 100% | residual activity [42]: 81% | residual activity [43]: 86% | inhibition [44]: -5.92% | inhibition [45]: 1.36%
